Results published in patent US9580470B2, “High-purity cyclopeptide crystal as well as preparation method and use thereof” (SHANGHAI TECHWELL BIOPHARMACEUTICAL CO., LTD., priority 2012, dated 2017).

Test: Purity and stability test (content of impurities on storage)
Format: physicochemical
Details: for Content of impurities in the initial sample: before storage; for 0-8° C., content of impurities in the sample at 7 day: sealed containers at 0-8° C. for 7 days
Description: In this example, the purity and stability of the samples obtained in Comparative Examples and Examples were compared. The specific method is described as follows:
And then the content of impurities in each sample was analyzed.

CC(O)C1NC(=O)C(N)CC(O)C(O)NC(=O)C2C(O)C(C)CN2C(=O)C(C(O)CC(N)=O)NC(=O)C(C(O)C(O)c2ccc(O)c(OS(=O)(=O)O)c2)NC(=O)C2CC(O)CN2C1=O (single isomer, unassigned) [Comparative Example 2]
Content of impurities in the initial sample: 1.9% | 0-8° C., content of impurities in the sample at 7 day: 3.4%

CC(O)C1NC(=O)C(N)CC(O)C(O)NC(=O)C2C(O)C(C)CN2C(=O)C(C(O)CC(N)=O)NC(=O)C(C(O)C(O)c2ccc(O)c(OS(=O)(=O)O)c2)NC(=O)C2CC(O)CN2C1=O (single isomer, unassigned) [Comparative Example 6]
Content of impurities in the initial sample: 2.4% | 0-8° C., content of impurities in the sample at 7 day: 4.1%

CC(O)C1NC(=O)C(N)CC(O)C(O)NC(=O)C2C(O)C(C)CN2C(=O)C(C(O)CC(N)=O)NC(=O)C(C(O)C(O)c2ccc(O)c(OS(=O)(=O)O)c2)NC(=O)C2CC(O)CN2C1=O (single isomer, unassigned) [Comparative Example 3]
Content of impurities in the initial sample: 1.9% | 0-8° C., content of impurities in the sample at 7 day: 3.2%

C[C@@H](O)[C@@H]1NC(=O)[C@@H](N)C[C@@H](O)[C@@H](O)NC(=O)[C@@H]2[C@@H](O)[C@@H](C)CN2C(=O)[C@H]([C@H](O)CC(N)=O)NC(=O)[C@H]([C@H](O)[C@@H](O)c2ccc(O)c(OS(=O)(=O)O)c2)NC(=O)[C@@H]2C[C@@H](O)CN2C1=O [Example 1]
Content of impurities in the initial sample: 2.5% | 0-8° C., content of impurities in the sample at 7 day: 4.8%

CC(O)C1NC(=O)C(N)CC(O)C(O)NC(=O)C2C(O)C(C)CN2C(=O)C(C(O)CC(N)=O)NC(=O)C(C(O)C(O)c2ccc(O)c(OS(=O)(=O)O)c2)NC(=O)C2CC(O)CN2C1=O (single isomer, unassigned) [Comparative Example 5]
Content of impurities in the initial sample: 2.1% | 0-8° C., content of impurities in the sample at 7 day: 3.6%

CC(O)C1NC(=O)C(N)CC(O)C(O)NC(=O)C2C(O)C(C)CN2C(=O)C(C(O)CC(N)=O)NC(=O)C(C(O)C(O)c2ccc(O)c(OS(=O)(=O)O)c2)NC(=O)C2CC(O)CN2C1=O (single isomer, unassigned) [Comparative Example 7]
Content of impurities in the initial sample: 2.4% | 0-8° C., content of impurities in the sample at 7 day: 4.7%

CC(O)C1NC(=O)C(N)CC(O)C(O)NC(=O)C2C(O)C(C)CN2C(=O)C(C(O)CC(N)=O)NC(=O)C(C(O)C(O)c2ccc(O)c(OS(=O)(=O)O)c2)NC(=O)C2CC(O)CN2C1=O (single isomer, unassigned) [Comparative Example 4]
Content of impurities in the initial sample: 1.8% | 0-8° C., content of impurities in the sample at 7 day: 2.9%
